In patent US20220315621A1, “COMPOSITIONS AND METHODS FOR TREATING CNS DISORDERS” (priority 2017, published 2022):
pIC50: −log10 of the molar value.

Biological target: TBPS binding
Test: Steroid inhibition of TBPS binding
Settings: Table II-2; read-out: TBPS IC50 (μm)

Q: Cc1nnn(CC(=O)[C@H]2CC[C@H]3[C@@H]4CC=C5CC[C@](C)(O)CC[C@]5(C)[C@H]4CC[C@]23C)n1 [II-F6, 1-((1S,3aS,3bS,8S,10aR,10bS,12aS)-8-hydroxy-8,10a,12a-trimethyl-1,2,3,3a,3b,4,6,7,8,9,10,10a,10b,11,12,12a-hexadecahydrocyclohepta[a]cyclopenta[f]naphthalen-1-yl)-2-(5-methyl-2H-tetrazol-2-yl)ethan-1-one] was tested. Which pIC50 did it give?
A: 7.00 to 8.00

Q: With Cc1nnnn1CC(=O)[C@H]1CC[C@H]2[C@@H]3CC=C4CC[C@](C)(O)CC[C@]4(C)[C@H]3CC[C@]12C [II-F7, 1-((1S,3aS,3bS,8S,10aR,10bS,12aS)-8-hydroxy-8,10a,12a-trimethyl-1,2,3,3a,3b,4,6,7,8,9,10,10a,10b,11,12,12a-hexadecahydrocyclohepta[a]cyclopenta[f]naphthalen-1-yl)-2-(5-methyl-1H-tetrazol-1-yl)ethan-1-one] as the molecule, how does the pIC50 read?
A: 7.00 to 8.00

Q: CC(=O)[C@H]1CC[C@H]2[C@@H]3CC[C@@H]4CC[C@](C)(O)CC[C@@H]4[C@H]3CC[C@]12C [II-F8, 1-((1S,3aS,3bR,5aR,8S,10aS,10bR,12aS)-8-hydroxy-8,12a-dimethyloctadecahydrocyclohepta[a]cyclopenta[f]naphthalen-1-yl)ethan-1-one] was tested. Which pIC50 did it give?
A: 6.00 to 7.00

Q: How did the pIC50 turn out when C[C@]1(O)CC[C@H]2CC[C@@H]3[C@H](CC[C@]4(C)[C@@H](C(=O)Cn5cc(C#N)cn5)CC[C@@H]34)[C@H]2CC1 [II-F11, 1-(2-((1S,3aS,3bR,5aR,8S,10aS,10bR,12aS)-8-hydroxy-8,12a-dimethyloctadecahydrocyclohepta[a]cyclopenta[f]naphthalen-1-yl)-2-oxoethyl)-1H-pyrazole-4-carbonitrile] was run?
A: 6.00 to 7.00

Q: Cc1nnn(CC(=O)[C@H]2CC[C@H]3[C@@H]4CC[C@@H]5CC[C@](C)(O)CC[C@@H]5[C@H]4CC[C@]23C)n1 [II-F12, 1-((1S,3aS,3bR,5aR,8S,10aS,10bR,12aS)-8-hydroxy-8,12a-dimethyloctadecahydrocyclohepta[a]cyclopenta[f]naphthalen-1-yl)-2-(5-methyl-2H-tetrazol-2-yl)ethan-1-one] was tested. Which pIC50 did it give?
A: 6.00 to 7.00

Q: Cc1nnnn1CC(=O)[C@H]1CC[C@H]2[C@@H]3CC[C@@H]4CC[C@](C)(O)CC[C@@H]4[C@H]3CC[C@]12C [II-F13, 1-((1S,3aS,3bR,5aR,8S,10aS,10bR,12aS)-8-hydroxy-8,12a-dimethyloctadecahydrocyclohepta[a]cyclopenta[f]naphthalen-1-yl)-2-(5-methyl-1H-tetrazol-1-yl)ethan-1-one] was tested. Which pIC50 did it give?
A: 5.00 to 6.00

Q: How did the pIC50 turn out when CC(=O)[C@H]1CC[C@H]2[C@@H]3CC[C@@H]4C[C@](C)(O)C[C@@H]4[C@H]3CC[C@]12C [II-G8, 1-((1S,3aS,3bR,5aR,7S,8aS,8bR,10aS)-7-hydroxy-7,10a-dimethylhexadecahydrodicyclopenta[a,f]naphthalen-1-yl)ethan-1-one] was run?
A: 6.00 to 7.00

Q: With C[C@]1(O)C[C@H]2CC[C@@H]3[C@H](CC[C@]4(C)[C@@H](C(=O)Cn5cc(C#N)cn5)CC[C@@H]34)[C@H]2C1 [II-G10] as the molecule, how does the pIC50 read?
A: 6.00 to 7.00

Q: How did the pIC50 turn out when C[C@]1(O)C[C@H]2CC[C@@H]3[C@H](CC[C@]4(C)[C@@H](C(=O)Cn5nccn5)CC[C@@H]34)[C@H]2C1 [II-G11, 1-((1S,3aS,3bR,5aR,7S,8aS,8bR,10aS)-7-hydroxy-7,10a-dimethylhexadecahydrodicyclopenta[a,f]naphthalen-1-yl)-2-(2H-1,2,3-triazol-2-yl)ethan-1-one] was run?
A: 6.00 to 7.00

Q: How did the pIC50 turn out when C[C@]1(O)C[C@H]2CC[C@@H]3[C@H](CC[C@]4(C)[C@@H](C(=O)Cn5ccnn5)CC[C@@H]34)[C@H]2C1 [II-G12, 1-((1S,3aS,3bR,5aR,7S,8aS,8bR,10aS)-7-hydroxy-7,10a-dimethylhexadecahydrodicyclopenta[a,f]naphthalen-1-yl)-2-(1H-1,2,3-triazol-1-yl)ethan-1-one] was run?
A: 6.00 to 7.00

Q: With CC(=O)[C@H]1CC[C@H]2[C@@H]3CC[C@@H]4[C@H](CC[C@@]4(C)O)[C@H]3CC[C@]12C [II-H11, 1-((1S,3aS,3bR,5aR,6R,8aR,8bS,10aS)-6-hydroxy-6,10a-dimethylhexadecahydrodicyclopenta[a,f]naphthalen-1-yl)ethan-1-one] as the molecule, how does the pIC50 read?
A: 5.00 to 6.00

Q: C[C@]12CC[C@@H]3[C@H]4CC[C@@](C)(O)[C@@H]4CC[C@H]3[C@@H]1CC[C@@H]2C(=O)Cn1cc(C#N)cn1 [II-H13, 1-(2-((1S,3aS,3bR,5aR,6R,8aR,8bS,10aS)-6-hydroxy-6,10a-dimethylhexadecahydrodicyclopenta[a,f]naphthalen-1-yl)-2-oxoethyl)-1H-pyrazole-4-carbonitrile] was tested. Which pIC50 did it give?
A: 5.00 to 6.00

Q: C[C@]12CC[C@@H]3[C@H]4CC[C@](C)(O)[C@@H]4CC[C@H]3[C@@H]1CC[C@@H]2C(=O)Cn1cc(C#N)cn1 [II-H19, 1-(2-((1S,3aS,3bR,5aR,6S,8aR,8bS,10aS)-6-hydroxy-6,10a-dimethylhexadecahydrodicyclopenta[a,f]naphthalen-1-yl)-2-oxoethyl)-1H-pyrazole-4-carbonitrile] was tested. Which pIC50 did it give?
A: 5.00 to 6.00

Q: How did the pIC50 turn out when COC[C@]1(O)C[C@H]2CC[C@@H]3[C@H](CC[C@]4(C)[C@@H](C(C)=O)CC[C@@H]34)[C@H]2C1 [II-J9, 1-((1S,3aS,3bR,5aR,7S,8aS,8bR,10aS)-7-hydroxy-7-(methoxymethyl)-10a-methylhexadecahydrodicyclopenta[a,f]naphthalen-l-yl)ethan-1-one] was run?
A: 6.00 to 7.00

Q: COC[C@]1(O)C[C@H]2CC[C@@H]3[C@H](CC[C@]4(C)[C@@H](C(=O)Cn5cc(C#N)cn5)CC[C@@H]34)[C@H]2C1 [II-J11, 1-(2-((1S,3aS,3bR,5aR,7S,8aS,8bR,10aS)-7-hydroxy-7-(methoxymethyl)-10a-methylhexadecahydrodicyclopenta[a,f]naphthalen-1-yl)-2-oxoethyl)-1H-pyrazole-4-carbonitrile] was tested. Which pIC50 did it give?
A: 6.00 to 7.00

Same assay, conditions: Table III-1; read-out: TBPS IC50

Q: CC(=O)[C@H]1CC[C@H]2[C@@H]3CCC[C@H]4C[C@](C)(O)CC[C@@H]4[C@H]3CC[C@]12C [III-A13, 1-((1S,3aS,3bR,6aS,8R,10aS,10bR,12aS)-8-hydroxy-8,12a-dimethyloctadecahydrobenzo[3,4]cyclohepta[1,2-e]inden-1-yl)ethan-1-one] was tested. Which pIC50 did it give?
A: 5.00 to 6.00

Q: With C[C@@]1(O)CC[C@H]2[C@@H](CCC[C@@H]3[C@@H]2CC[C@]2(C)[C@@H](C(=O)Cn4cc(C#N)cn4)CC[C@@H]32)C1 [III-A15, 1-(2-((1S,3aS,3bR,6aS,8R,10aS,10bR,12aS)-8-hydroxy-8,12a-dimethyloctadecahydrobenzo[3,4]cyclohepta[1,2-e]inden-1-yl)-2-oxoethyl)-1H-pyrazole-4-carbonitrile] as the molecule, how does the pIC50 read?
A: 6.00 to 7.00

Same assay, conditions: Table IV-2; read-out: TBPS IC50

Q: With C[C@@]1(O)CC[C@H]2[C@H](C[C@@H]3[C@@H]2CC[C@]2(C)[C@@H](C(=O)Cn4cc(C#N)cn4)CC[C@@H]32)C1 [IV-A16, 1-(2-((3S,3aS,5aR,5bS,8R,9aR,10aR,10bS)-8-hydroxy-3a,8-dimethylhexadecahydrocyclopenta[a]fluoren-3-yl)-2-oxoethyl)-1H-pyrazole-4-carbonitrile] as the molecule, how does the pIC50 read?
A: 7.00 to 8.00

Q: CC(=O)[C@H]1CC[C@H]2[C@@H]3C[C@H]4C[C@](C)(O)CC[C@@H]4[C@H]3CC[C@]12C [IV-B7, 1-((3S,3aS,5aR,5bS,8R,9aS,10aR,10bS)-8-hydroxy-3a,8-dimethylhexadecahydrocyclopenta[a]fluoren-3-yl)ethan-1-one] was tested. Which pIC50 did it give?
A: 7.00 to 8.00

Q: With C[C@@]1(O)CC[C@H]2[C@@H](C[C@@H]3[C@@H]2CC[C@]2(C)[C@@H](C(=O)Cn4cc(C#N)cn4)CC[C@@H]32)C1 [IV-B9, 1-(2-((3S,3aS,5aR,5bS,8R,9aS,10aR,10bS)-8-hydroxy-3a,8-dimethylhexadecahydrocyclopenta[a]fluoren-3-yl)-2-oxoethyl)-1H-pyrazole-4-carbonitrile] as the molecule, how does the pIC50 read?
A: 7.00 to 8.00

Same assay, conditions: Table V-2; read-out: TBPS IC50

Q: CC(=O)[C@H]1CC[C@H]2[C@@H]3CC[C@H]4C[C@](C)(O)CC[C@]4(C)[C@H]3CCC[C@]12C [V-A8, 1-((3aS,4S,6aS,6bR,8aS,10R,12aS,12bS)-10-hydroxy-3a,10,12a-trimethyloctadecahydronaphtho[2,1-e]azulen-4-yl)ethan-1-one] was tested. Which pIC50 did it give?
A: 6.00 to 7.00

Q: How did the pIC50 turn out when C[C@@]1(O)CC[C@@]2(C)[C@@H](CC[C@@H]3[C@@H]2CCC[C@]2(C)[C@@H](C(=O)Cn4cc(C#N)cn4)CC[C@@H]32)C1 [V-A10, 1-(2-((3aS,4S,6aS,6bR,8aS,10R,12aS,12bS)-10-hydroxy-3a,10,12a-trimethyloctadecahydronaphtho[2,1-e]azulen-4-yl)-2-oxoethyl)-1H-pyrazole-4-carbonitrile] was run?
A: 6.00 to 7.00
